What was measured:
[1] = tested on: Ube3A; experiment: Ube3A protein in hippocampus of wild-type mice after a single TOP injection; format: in vivo; conditions: single bilateral hippocampal injection of TOP 275 μg
Description: (§1) Whole frozen mouse hippocampi, human brain specimens, and cultured cells were homogenized in RIPA buffer (ThermoFisher) supplemented with protease and phosphatase inhibitor cocktail (ThermoFisher), using a Teflon dounce homogenizer and centrifuged at 14,000 rpm for 10 minutes at 4° C. Supernatants were collected, normalized by BCA assay (ThermoFisher), and prepared for loading using sample buffer (SB) 4× (ThermoFisher) and dithiothreitol (DTT) 10× (ThermoFisher).
Controls were wild type mice injected with PBS.

[2] = tested on: J20 mice; experiment: Long-term potentiation recordings, hippocampal slices of J20 mice; format: in vivo; conditions: single TOP injection 275 μg, vs PBS treated J20 mice
Description: Long-term potentiation (LTP) recordings were performed by positioning glass electrodes filled with artificial cerebrospinal fluid (ACSF) in the CA1 stratum radiatum to record Field Excitatory Post-Synaptic Potentials (fEPSPs) evoked by local stimulation (0.1 ms) of Schaffer collateral fibers using a bipolar concentric electrode placed laterally to the recoding electrode (approximately 150 μm). Following a steady baseline of 15 minutes, potentiation was induced with three theta-burst stimulations (TBS; 15 second interval), each one involving a single train of 10 bursts at 5 Hz, where each burst was composed of four pulses at 100 Hz (strong stimulation). The fEPSP slopes following tetanic stimulation were normalized to the average of the slopes of the fEPSPs acquired during the baseline.
Controls were wild-type mice and J20 mice injected with PBS.

[3] = tested on: phospho-tau; experiment: Western blot of phospho-tau in J20 mice; format: in vivo; conditions: TOP treated J20 mice vs control J20
From the text: All chemicals used were of the highest grade available. Antibodies used include the following: rabbit anti-Ube3A (Cell Signaling), mouse anti-RhoA (Santa Cruz), rabbit anti-Arc (Santa Cruz), mouse anti-GluR1 (Millipore), rabbit anti-Ephexin-5 (Pierce and Abcam), rabbit anti-phospho-c-Abl (Cell Signaling), rabbit anti-GAPDH (Cell Signaling), rabbit anti-HA (Cell Signaling), anti-PSD95 (Cell Signaling), rabbit anti-NMDAR1 (Millipore), and anti-phospho-tau PHF13 (Cell Signaling).
as §1

[4] = tested on: Ube3A; experiment: Immunoprecipitation of HA-Ube3A and phospho-tyrosine immunoblot in B35 cells; format: cell-based, rat; conditions: B35 cells overexpressing HA-tagged Ube3A, as early as 1 hour
Description: Hippocampal neuron cultures from both male and female rat embryos (E17-18) were prepared following a slightly modified version of the method of Brewer et al. 1996. Hippocampal neurons were kept in culture at 37° C. with 5% CO2 in Neurobasal medium (ThermoFisher) with B27 (ThermoFisher) supplement and Glutamax (ThermoFisher) and plated at a density of 2.5×10^5 cell/ml on dishes coated with poly-D-lysine (ThermoFisher). For the experiments, neurons were used after 14-21 days in vitro (DIV). Rat neuroblastoma B35 cells were cultured and maintained in DMEM (ThermoFisher) supplemented with 10% fetal bovine serum (FBS; Invitrogen) and Glutamax (ThermoFisher).
Cells were collected and homogenized with IP lysis buffer (ThermoFisher) supplemented with Halt protease and phosphatase inhibitor (ThermoFisher). Cell extracts were incubated overnight at 4° C. with 1.0 μg HA antibody (Cell Signaling) or mouse IgG (Cell Signaling) as a negative control Immunocomplexes were incubated with magnetic beads covalently coated with protein G (Invitrogen) on a rotator for 2 hours, at 4° C. The beads were then pelleted with a magnet and washed 3 times with 1× cell lysis buffer (Cell Signaling) supplemented with complete mini protease inhibitor mixture (Roche). The immunocomplexes were resuspended in cell lysis buffer, LDS-sample buffer (Invitrogen), […] dithiothreitol (DTT), and analyzed by Western blotting. […]

[5] = tested on: Ube3A mRNA; experiment: qPCR of Ube3A mRNA in hippocampal neurons; format: cell-based, rat; conditions: oAβ for 24 hours (results not shown)
Description: Neurons were lysed and total RNA was extracted using TRIzol reagent (Ambion) following the manufacturer's protocol. RNA concentration and purity were assessed by measuring the optical density at 260 and 280 nm with a NanoDrop (Thermo Scientific). cDNA was synthesized using the first-strand cDNA synthesis kit (Origene) with 1 μg of total RNA, following the manufacturer's instructions. Quantitative real-time PCR was performed using FastStart SYBR Green Master Mix (Roche) and an Eppendorf Realplex Mastercyler with the following cycle settings: 1 cycle at 95° C. for 10 min and 40 cycles of amplification, 95° C. for 15 s, 58-60° C. for 30-60 s, 72° C. for 30-60 s. The amounts of Ube3A mRNA were quantified and normalized to GAPDH mRNA using the following primer pairs: Ube3A forward 5′-[…]-3′ (SEQ ID NO: 3) and reverse 5′-[…]—3′ (SEQ ID NO: 4). The threshold cycles were determined and normalized to the threshold cycles of a GAPDH gene. Relative mRNAs levels for Ube3A were expressed as a fold induction in an experimental condition compared with a control condition.
In mammals, the Ube3A gene is subject to genomic imprinting, whereby only the maternal allele is expressed in neurons. The paternal allele is silenced through the expression of a Ube3A-antisense (Ube3A-ATS), transcribed as part of a large non-coding antisense transcript (Runte et al. 2001).

[6] = tested on: GluR1; experiment: Surface GluR1 in hippocampal neurons (biotinylated surface Western blot, immunostaining); format: cell-based, rat; conditions: hippocampal neurons treated with Aβ
Description: Cells were fixed in PFA (4%) in […] PBS for 10 minutes at room temperature. Permeabilization was performed using 0.4% Triton X-100 (Sigma) in PBS for 20 minutes. Then, cells were incubated in anti-GluR1 primary antibody (Millipore) in Superblock (Thermo Scientific) with 0.1% Triton X-100 for 12 hours at 4° C. Cells were washed with PBS, and then incubated in goat anti-mouse Alexa 568 in Superblock with 0.1% Triton X-100 for 1 hour at RT. Then cells were mounted onto glass slides using Gel Mount (Biomeda).
The consequences of upregulation of Arc and Ephexin-5 are well characterized. In the case of Arc, one its key function is to regulate postsynaptic trafficking of AMPA receptor subunits, and to regulate spine morphology and network stability (Korb and Finkbeiner 2011).

[7] = tested on: Ephexin-1; experiment: Levels or activities of Ephexin-1 in hippocampal neurons; format: cell-based, rat; conditions: hippocampal neurons treated with oAβ (results not shown)
[8] = tested on: Lfc; experiment: Levels or activities of Lfc in hippocampal neurons; format: cell-based, rat; conditions: hippocampal neurons treated with oAβ (results not shown)

Compound: CC[C@@]1(O)C(=O)OCc2c1cc1n(c2=O)Cc2cc3c(CN(C)C)c(O)ccc3nc2-1 [TOP, topotecan]
- persistence of increased Ube3A expression after the single injection [1]: up to 5 months
- Ube3A expression in the hippocampus ([1]; after 1 month): sustained increase
- LTP in hippocampal slices [2]: Enhancement
- phospho-tau levels [3]: decreased

Compound: oAβ: synthetic soluble oligomeric Aβ1-42
- phospho-tyrosinated Ube3A (pTyr-Ube3A) [4]: significant increase
- levels of Ube3A mRNA [5]: did not show any differences
- levels of surface-expressed GluR1 subunit [6]: significant decrease
- levels or activities of Ephexin-1 [7]: no observation of any differences
- levels or activities of Lfc [8]: no observation of any differences
